Assay results published in patent US20040147494A1, “Use” (priority 2001, published 2004).
Read-outs that look alike come from different tables or passages of the source.

Key:
[1] = target: T1, 11 β-HSD type 1 (Rattus norvegicus, UniProt P16232); assay: biochemical; format: biochemical; conditions: rat liver cytosol 25 μL, 90 min, 37° C., cortisone (E) to cortisol (F), vs control without inhibitor, means n=2; for inhibition at 10 µM: read-out: % […]→F ± SD, inhibitor 10 μM
T1 construct: Both the kidneys and livers were homogenised on ice in PBS- sucrose buffer; tissue Harlan Olac, Bicester, Oxon, UK (rats); host or cells: rat liver homogenate supernatant (Wistar rat)

[2] = target: T2, 11 β-HSD type 2 (Rattus norvegicus, UniProt P50233); assay: biochemical; conditions: for inhibition at 10 µM: read-out: % […]→E ± SD, inhibitor 10 μM
T2 construct: Both the kidneys and livers were homogenised on ice in PBS- sucrose buffer; tissue Harlan Olac, Bicester, Oxon, UK (rats); host or cells: rat kidney homogenate supernatant (Wistar rat)
T2 sequence (P50233 1-400): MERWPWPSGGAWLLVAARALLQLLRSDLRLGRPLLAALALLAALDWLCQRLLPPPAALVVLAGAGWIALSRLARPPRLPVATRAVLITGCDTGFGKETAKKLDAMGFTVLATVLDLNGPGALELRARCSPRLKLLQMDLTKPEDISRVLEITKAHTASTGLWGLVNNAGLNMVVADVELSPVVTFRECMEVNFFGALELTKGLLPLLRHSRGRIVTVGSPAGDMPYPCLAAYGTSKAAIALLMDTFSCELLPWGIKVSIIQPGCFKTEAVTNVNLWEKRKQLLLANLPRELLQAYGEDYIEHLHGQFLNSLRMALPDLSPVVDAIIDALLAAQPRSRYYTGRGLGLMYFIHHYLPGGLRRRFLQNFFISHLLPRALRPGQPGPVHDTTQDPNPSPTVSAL
Protocol: Enzymes—Rat livers and rat kidneys were obtained from normal Wistar rats (Harlan Olac, Bicester, Oxon,UK). Both the kidneys and livers were homogenised on ice in PBS- sucrose buffer (1 g/10 ml) using an Ultra-Turrax. After the livers and kidneys were homogenised the homogenate was centrifuged for five minutes at 4000 rpm. The supernatant obtained was removed and stored in glass vials at −20° C. The amount of protein per μl of rat liver and kidney cytosol was determined using the Bradford method.
The same procedure was used for the 11 β-HSD type 2 assay, the conversion F to E, to determine the amount of rat kidney to be used and the incubation time.
In these assays the influence of different inhibitors on the 11 β-HSD activity both in reductive (type 1) and oxidative (type 2) directions were assessed. In the reductive direction E is the substrate and F the product and visa versa in the case of oxidation. The method described here is for the oxidative direction.
The substrate solution contained about 50,000 cpm/ml ^3H—F in PBS-sucrose and 0.5 pM F. 1 ml of the substrate solution was added to each tube, the inhibitors were also added, at a 10 μM concentration, to each tube except to the “control” and “blank” tubes. 150 μL was added to all tubes except to the blanks, this was done to correct for the amount of ^3H[…]. The tubes were incubated for 60 minutes in a mechanically shaken water bath at 37° C. […] After incubation 50 μL of recovery was added to correct for the losses made in the next steps, containing 5000 cpm/50 μL of ^14C-E and 50 μg/50 μL of unlabelled E (to visualise the spot on the TLC-plate). The aqueous mixture was then extracted with 4 ml of ether (2×30 sec cycle, vortex mix). After freezing the aqueous phase, the ether (upper) layer was decanted into smaller tubes and evaporated at 45° C. until completely dry. The residue was then re-dissolved in 6 drops of ether and transferred to a TLC-plate. The TLC-plate was developed in chloroform:methanol (9:1 v/v) solvent system, the TLC-plate ran for about 90 minutes until the solvent front had moved about 18 cm. The position of the product E was visualised under UV-light and cut out from the TLC-plate and put into scintillation vials. Radioactivity was eluted over 5 minutes with 0.5 ml methanol. 0.5 ml of PBS- sucrose and 10 ml of Ecoscint were then added and vortex mixed before counting in the scintillation counter. Before counting the samples, two total activity vials were prepared. These contained 0.5 ml of the substrate solution, 50 μL of the recovery, 0.5 ml of methanol and 10 ml of Ecoscint. These two total activity vials were needed to determine the amount of ^14C-E and ^3H—F added in the beginning to make the calculations.
To look at the percentage of inhibition four different concentrations, 1, 5, 10 and 20 μM, were used. The method for both the rat liver, type 1 the reductive, and rat kidney, type 2 the oxidative, stay the same throughout the entire experiment.
In this experiment the influence of different inhibitors on the conversion E to F and F to E was determined. The reason why inhibition in both directions was examined was to make a comparison between the inhibitors and which type of 11 β-HSD they inhibit more. Thirty-two compounds were screened for their ability to inhibit 11 β-HSD type 1 (E to F) and type 2 (F to E). […] The percent of inhibition was calculated as the percentage of decrease in radio labelled ^3H-E and ^3H—F of product formed, compared with the control activity (the tubes without an inhibitor in it). All the results calculated are means, n=2.

[3] = read-out: % INHIBITION E→F ± SD
[4] = rat kidney cytosol 150 μL, 60 min, 37° C., cortisol (F) to cortisone (E), vs control without inhibitor, means n=2, read-out: % INHIBITION F→E ± SD

T1 sequence (P16232 whole entry): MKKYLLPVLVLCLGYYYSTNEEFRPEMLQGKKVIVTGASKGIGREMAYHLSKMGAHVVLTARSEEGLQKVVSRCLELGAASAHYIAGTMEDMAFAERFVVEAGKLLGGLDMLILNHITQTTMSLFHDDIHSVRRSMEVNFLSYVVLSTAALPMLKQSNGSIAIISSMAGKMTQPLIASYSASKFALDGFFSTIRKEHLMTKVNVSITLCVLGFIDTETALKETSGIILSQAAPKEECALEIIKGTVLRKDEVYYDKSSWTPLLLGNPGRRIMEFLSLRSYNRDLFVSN

CC(=O)[C@H]1CC[C@H]2[C@@H]3CC=C4C[C@@H](O)CC[C@]4(C)[C@H]3CC[C@]12C [Pregnenolone, reference compound]
inhibition at 10 µM [1]: 49.8 ± 9.36%
inhibition at 10 µM ([2]; rat kidney cytosol 150 μL, 60 min, 37° C., cortisol (F) to cortisone (E), vs control without inhibitor, means n=2): 42.1 ± 0.777%

Deoxycorticosterone [reference compound]
% INHIBITION E→F ± SD ([1]; inhibitor 10 μM): 70.2 ± 1.655%
% INHIBITION F→E ± SD ([2]; inhibitor 10 μM, rat kidney cytosol 150 μL, 60 min, 37° C., cortisol (F) to cortisone (E), vs control without inhibitor, means n=2): 53.3 ± 1.273%

C[C@H](CCC(=O)O)[C@H]1CC[C@H]2[C@@H]3CC[C@@H]4C[C@H](O)CC[C@]4(C)[C@H]3C[C@H](O)[C@]12C [Deoxycholic acid, reference compound]
inhibition at 10 µM [1, 3]: 27.6 ± 7.85%
stimulation of 11 β-HSD type 2 (F to E) ([2]; inhibitor 10 μM, rat kidney, printed as stimulation, not inhibition): 1%
inhibition at 10 µM [2, 4]: -1.1 ± 8.27%

C[C@]12CCC(=O)C=C1CCC1C2C(O)C[C@]2(C)C(=O)CCC12 (stereo partly drawn) [11β-OH-Androstenedione, reference compound]
inhibition at 10 µM [1, 3]: 55.2 ± 0.26%
inhibition at 10 µM [2, 4]: 40.9 ± 4.67%

COC(=O)[C@@]1(C)CC[C@]2(C)CC[C@]3(C)C(=CC(=O)[C@@H]4[C@@]5(C)CC[C@H](OCc6ccccc6)C(C)(C)C5CC[C@]43C)[C@@H]2C1 (stereo partly shown) [STX 359]
inhibition at 10 µM [1, 3]: 17.8 ± 2.5%
inhibition at 10 µM [2, 4]: 17 ± 3.5%

CC1(C)C2CC[C@]3(C)C(CC=C4[C@@H]5C[C@@](C)(CO)CC[C@]5(C)CC[C@]43C)[C@@]2(C)CC[C@@H]1O (stereo partly shown) [STX 350]
inhibition at 10 µM [1, 3]: 13.4 ± 9.63%
inhibition at 10 µM [2, 4]: 60.3 ± 3.99%

CC(=O)C1CCC2C3CCC4=CC(=O)CC[C@]4(C)C3CC[C@]12C (stereo partly shown) [Progesterone, reference compound]
inhibition at 10 µM [1, 3]: 73%
inhibition at 10 µM [2, 4]: 68.5 ± 0.707%

COC(=O)[C@@]1(C)CC[C@]2(C)CC[C@]3(C)C(=CC(=O)C4[C@@]5(C)CCC(=O)C(C)(C)C5CC[C@]43C)[C@@H]2C1 (stereo partly drawn) [STX194, Methyl 3-oxo-18β-glycerrhetate]
inhibition at 10 µM [1, 3]: 65.8 ± 5.69%
inhibition at 10 µM [2, 4]: 75 ± 2.93%

CCOC(=O)[C@@]1(C)CC[C@]2(C)CC[C@]3(C)C(=CC(=O)C4[C@@]5(C)CC[C@H](OCc6ccccc6)C(C)(C)C5CC[C@]43C)[C@@H]2C1 (stereo partly shown) [STX 297]
inhibition at 10 µM [1, 3]: 34.3 ± 8.26%
inhibition at 10 µM [2, 4]: 58.7 ± 10.4%

CCOC(=O)[C@H](C)NC(=O)[C@@]1(C)CC[C@]2(C)CC[C@]3(C)C(=CC(=O)[C@@H]4[C@@]5(C)CC[C@H](O)C(C)(C)C5CC[C@]43C)[C@@H]2C1 (stereo partly drawn) [STX 369, 18β-Glycyrrhetinic Acid L-alanine Ethyl Ester Amide]
inhibition at 10 µM [1, 3]: 24.9 ± 2.51%
inhibition at 10 µM [2, 4]: 35.4 ± 12.6%

CC1(C)C2CC[C@]3(C)C([C@H](O)C=C4[C@@H]5C[C@@](C)(CO)CC[C@]5(C)CC[C@]43C)[C@@]2(C)CC[C@@H]1O (stereo partly shown) [STX 351]
inhibition at 10 µM [1, 3]: 70 ± 6.39%
inhibition at 10 µM [2, 4]: 94.41 ± 0.63%

CC(=O)O[C@H]1CC[C@@]2(C)C(CC[C@]3(C)[C@@H]2C(=O)C=C2[C@@H]4C[C@@](C)(C(=O)NCc5ccccc5)CC[C@]4(C)CC[C@]23C)C1(C)C (stereo partly drawn) [STX 367, 3β-Acetoxy-18β-Glycyrrhetinic Acid Benzylamide]
inhibition at 10 µM [1, 3]: 36.2 ± 3.69%
inhibition at 10 µM [2, 4]: 27.3 ± 2.99%

CC1(C)C(O)CC[C@@]2(C)C1CC[C@]1(C)C2CC=C2[C@@H]3C[C@@](C)(C(=O)OCc4ccccc4)CC[C@]3(C)CC[C@]21C (stereo partly shown) [STX 296]
inhibition at 10 µM [1, 3]: 37.7 ± 8.85%
inhibition at 10 µM [2, 4]: 33.8 ± 15.8%

COC(=O)[C@@]1(C)CC[C@]2(C)CC[C@]3(C)C(=CCC4[C@@]5(C)CC[C@H](O)C(C)(C)C5CC[C@]43C)[C@@H]2C1 (stereo partly shown) [STX 299]
inhibition at 10 µM [1, 3]: 20.2 ± 1.89%
inhibition at 10 µM [2, 4]: 19.5 ± 1.66%

CO[C@H]1CC[C@@]2(C)C(CC[C@]3(C)C2C(=O)C=C2[C@@H]4C[C@@](C)(C(=O)O)CC[C@]4(C)CC[C@]23C)C1(C)C (stereo partly drawn) [STX195a, 3β-Methoxy-11-oxo-18β-glycerrhetinic acid]
inhibition at 10 µM [1, 3]: 53 ± 1.02%
inhibition at 10 µM [2, 4]: 90.3 ± 1.98%

C[C@]12CCC(=O)C=C1CC[C@@H]1[C@@H]2[C@@H](O)C[C@@]2(C)[C@H]1CC[C@]2(O)C(=O)CO [Cortisol, reference compound]
inhibition at 10 µM [1, 3]: 49.6 ± 5.87%
inhibition at 10 µM [2, 4]: 54.7 ± 4.24%

CC1(C)C2CC[C@]3(C)C(C(=O)C=C4[C@@H]5C[C@@](C)(CO)CC[C@]5(C)CC[C@]43C)[C@@]2(C)CC[C@@H]1O (stereo partly shown) [STX 349]
inhibition at 10 µM [1, 3]: 89.7 ± 4.9%
inhibition at 10 µM [2, 4]: 100 ± 0.49%

CCO[C@H]1CC[C@@]2(C)C(CC[C@]3(C)C2C(=O)C=C2[C@@H]4C[C@@](C)(C(=O)O)CC[C@]4(C)CC[C@]23C)C1(C)C (stereo partly drawn) [STX196a, 3β-Ethoxy-11-oxo-18β-glycerrhetinic acid]
inhibition at 10 µM [1, 3]: 55 ± 0.022%
inhibition at 10 µM [2, 4]: 93.9 ± 1.77%

CC1(C)C2CC[C@]3(C)[C@H](C(=O)C=C4[C@@H]5C[C@@](C)(C(=O)NCc6ccccn6)CC[C@]5(C)CC[C@]43C)[C@@]2(C)CC[C@@H]1O (stereo partly drawn) [STX 371, 18β-Glycyrrhetinic Acid (pyridin-2-ylmethyl)-amide]
inhibition at 10 µM [1, 3]: 57.1 ± 5.6%
inhibition at 10 µM [2, 4]: 93 ± 2.75%

COC(=O)[C@@]1(C)CC[C@]2(C)CC[C@]3(C)C(=CC(=O)C4[C@@]5(C)CC[C@H](O)C(C)(C)C5CC[C@]43C)[C@@H]2C1 (stereo partly drawn) [STX195, 3β-Hydroxy-11-oxo-18β-glycyrrhetinic acid methyl ester]
inhibition at 10 µM [1, 3]: 85.4 ± 2.29%
inhibition at 10 µM [2, 4]: 105 ± 1.55%

CC1(C)C2CC[C@]3(C)C(C(=O)C=C4[C@@H]5C[C@@](C)(C(=O)OCc6ccccc6)CC[C@]5(C)CC[C@]43C)[C@@]2(C)CC[C@@H]1O (stereo partly shown) [STX 348]
inhibition at 10 µM [1, 3]: 63.4 ± 1.45%
inhibition at 10 µM [2, 4]: 94.77 ± 0.17%

CC1(C)C2CC[C@]3(C)C(CC=C4[C@@H]5C[C@@](C)(C(=O)O)CC[C@]5(C)CC[C@]43C)[C@@]2(C)CC[C@@H]1O (stereo partly drawn) [STX122, 11-Deoxo-18β-glycerrhetinic acid]
inhibition at 10 µM [1, 3]: 92.7 ± 1.23%
inhibition at 10 µM [2, 4]: 109 ± 1.64%

COC(=O)[C@@]1(C)CC[C@]2(C)CC[C@]3(C)C(=CC(=O)[C@@H]4[C@@]5(C)CC[C@H](OCc6ccc(C(C)(C)C)cc6)C(C)(C)C5CC[C@]43C)[C@@H]2C1 (stereo partly shown) [STX 360]
inhibition at 10 µM [1, 3]: 14.7 ± 2.4%
inhibition at 10 µM [2, 4]: 26.4 ± 11.6%

CC1(C)C2CC[C@]3(C)[C@H](C(=O)C=C4[C@@H]5C[C@@](C)(C(=O)NCCN6CCOCC6)CC[C@]5(C)CC[C@]43C)[C@@]2(C)CC[C@@H]1O (stereo partly shown) [STX 372, 18-Glycyrrhetinic Acid (2-morpholin-4-yl-ethyl)-amide]
inhibition at 10 µM [1, 3]: 19.4 ± 7.81%
inhibition at 10 µM [2, 4]: 65.8 ± 20.9%
